Test results from publication PMC7712428, “Dimethoate Induces DNA Damage and Mitochondrial Dysfunction Triggering Apoptosis in Rat Bone-Marrow and Peripheral Blood Cells” (Toxics, 2020).
Read-outs that look alike come from different tables or passages of the source.

How the values were obtained:
[1] = tested on: bone marrow cells; details: 40 mg/kgbw; for Total Aberrations (Mean ± SD): mean percentage; for MI (Mean ± SD): mitotic index mean percentage; for Structural Aberrations Assoc: number of associations; for Structural Aberrations Brk: number of breaks; for Structural Aberrations Del: number of deletions; for Structural Aberrations Dcn: number of dicentrics; for Structural Aberrations Frag: number of fragments; for Structural Aberrations Gp: number of gaps; for Structural Aberrations Ring: number of rings
From the text: (§1) The experimental animals—Rattus norvegicus (Wistar strain; 8–10 weeks old; 120 ± 20 gm; males only) were acquired from Indian Institute of Integrative Medicine (IIIM-CSIR) (Jammu, India), quarantined, acclimatized and sacrificed as per standard practice conforming to the University Ethical Regulations. After acclimatization, rats were divided into five groups by stratified randomization with five animals per group. […] Distilled water was used to prepare dosing solutions of test agent and injected via intraperitoneal (i.p.) injection. At 24, 48 and 72 h post-dosing, 5 rats per duration were sacrificed and necessary tissues were isolated for different cytogenetic and molecular parameters. For CA assessment, separate experimental lot was used due to colchicine treatment.
Method of Preston et al. was used for preparing the metaphase chromosomes. An aqueous solution of Colchicine (4 mg/kgbw) was injected intraperitoneally 2 h prior to sacrificing the animal. Pre-warm KCL (0.075 M) solution was used to collect the bone marrow cells followed by incubation at 37 °C for 20 min, and then centrifuge at 1000 rpm for 10 min. After fixing the pellet in cold Cornoy’s fixative dropped onto clean pre-chilled glass slide in 30% ethanol and dried in air. 5% buffered Giemsa (pH 7.0) was used for staining. Chromosomal aberrations were analyzed on properly separated metaphases and finally photographed at 100× (Olympus U—PMTV microscope), using oil immersion. The metaphase cells from approximately 1000 cells per concentration per animal both in exposed and control replicates, expressed in percentage were considered for mitotic indices (MI).

[2] = tested on: peripheral blood cells; details: Mean ± SD, 40 mg/kgbw
From the text: as §1
Detection of DNA strand break was performed according to protocol of Singh et al. with some modifications. Briefly, blood was collected using Retro-orbital bleeding during euthanasia. 10μL whole blood cells obtained were mixed with 75 µL of 0.5% LMPA and layered onto frosted slides which was pre-coated with NMA. After putting cover slip, slides were kept for 5–10min. After gelling, removed cover slip gently and added a layer of 90 μL of LMPA. After replacing the cover slip, slides were placed on the slide tray (ice packs) till the agarose layer hardened (5–10 min). Following this, removed the cover slip and by gently immersing the slides in lysis buffer embedded cells were lysed. Cells lysis was performed in cold conditions for a minimum of 2 h in lysing solution.
Alkaline conditions (pH > 13) were used to perform the electrophoresis. After lysis, slides were subjected in electrophoretic buffer at 4 °C for 40 min to achieve the DNA denaturation that allow the DNA unwinding and the expression of alkali labile site. Electrophoresis was then carried out at 0.74 V/cm for 40 min (300 mA; 24 volts) at 4 °C by raising or lowering buffer. Thereafter, neutralization buffer (0.4 M Tris, 10 M HCl; pH = 7.5) were employed to wash the slides. Slides were stained by 80 μL of 1× Ethidium Bromide and excess stain was removed by dipping in chilled distilled water. Slides were examined at 40× magnification under fluorescence microscope coupled with a charge coupled device camera (Olympus).

[3] = tested on: Eosinophils; details: 72 h treatment
From the text: as §1
(§2) WBCs were isolated by following the protocol of Lone et al.. Blood was collected in 0.1% EDTA from retro-orbital plexus of rat, followed by incubation for 30 min. 500 µL of blood was then added to a centrifuge tube with 1 mL FACS lysing solution. The blood was incubated for 10 min and centrifuged (2000 rpm, 10 min) at 25 °C. After discarding the supernatant, pellet was washed in 1mL FACS lysing solution followed by centrifuging at 2000 rpm for 5 min. Repeated this step twice and then pellet was put in 500 µL of PBS, leaving only WBCs.
(§3) Protocol of Majeed and colleagues was employed for flow cytometric measurements of change in Ψm. […] Leukocytes were identified via forward and side scatter.

[4] = tested on: Neutrophils
From the text: as §1, §2, §3

[5] = tested on: Platelets; details: 72 h treatment

## O=P1(N(CCCl)CCCl)NCCCO1 (stereo not shown) [Cyclophosphamide, reference compound]
[1]; 24 h
  Total Aberrations (Mean ± SD): 17.50 ± 3.33 ***^,a %
  MI (Mean ± SD): 1.52 ± 0.05 **^,a %
  Structural Aberrations Assoc: 9
  Structural Aberrations Brk: 14
  Structural Aberrations Del: 23
  Structural Aberrations Dcn: 25
  Structural Aberrations Frag: 26
  Structural Aberrations Gp: 20
  Structural Aberrations Ring: 8
[1]; 48 h
  Total Aberrations (Mean ± SD): 13.66 ± 2.56 ***^,a %
  MI (Mean ± SD): 1.56 ± 0.05 **^,a %
  Structural Aberrations Assoc: 7
  Structural Aberrations Brk: 12
  Structural Aberrations Del: 18
  Structural Aberrations Dcn: 18
  Structural Aberrations Frag: 21
  Structural Aberrations Gp: 16
  Structural Aberrations Ring: 6
[1]; 72 h
  Total Aberrations (Mean ± SD): 10.66 ± 2.61 ***^,a %
  MI (Mean ± SD): 1.63 ± 0.03 **^,a %
  Structural Aberrations Assoc: 4
  Structural Aberrations Brk: 9
  Structural Aberrations Del: 15
  Structural Aberrations Dcn: 14
  Structural Aberrations Frag: 19
  Structural Aberrations Gp: 13
  Structural Aberrations Ring: 3
[2]; 24 h
  Olive Tail Moment: 12.52 ± 0.81 ***^,a
  Tail Length (µm): 51.01 ± 3.71 ***^,a µm
[2]; 48 h
  Olive Tail Moment: 11.28 ± 0.84 ***^,a
  Tail Length (µm): 40.91 ± 2.86 ***^,a µm
[2]; 72 h
  Olive Tail Moment: 8.23 ± 0.73 ***^,a
  Tail Length (µm): 38.51 ± 1.05 ***^,a µm
[3]
  MMP loss (membrane potential loss): 54%
[4]; Figure 7, one experiment, Positive Control
  P9: percentage of reduced mitochondrial membrane potential (MMP loss): 10.9%
[4]; neutrophils, 72 h treatment
  MMP loss (membrane potential loss): 93.2%
[5]
  MMP loss (membrane potential loss): 81.1%
